# Data reported in patent US20100152434A1, “Protein Kinase-binding Nucleosides and Associated Methods” (priority 2007, published 2010).
# Columns and labels:
# CDK3 = CDK3 (Homo sapiens, UniProt Q00526); experiment: Ambit kinase phage display ATP-binding-site ligand binding assay; conditions: read-out: percent inhibition of binding
# From the text: This assay is based on ligand-affinity/protein kinase phage display and was employed essentially as described by Fabian et. al [Nature Biotech. […] In this assay, protein kinases are cloned into T7 bacteriophage which express the kinase fusion proteins on the phage capsid. T7 kinase-tagged phage are then screened for binding to ATP-binding-site ligands that have been immobilized on a solid support. Phage are screened for binding to the anchored ligands both in the presence of test compound and in its absence (control). Elution of the bound phage by free ligand (ATP-binding site ligand that is not immobilized on a solid support) followed by determination of the phage titre provides a reliable measure of the ability of test compounds to block binding of target kinases to resin-bound ATP-binding-site ligands.
# T7 kinase-tagged phage strains were grown in parallel in microtiter plates in a proprietary bacterial host derived from E. Coli strain BL21. E. Coli were grown to a log phase, infected with T7 kinase-tagged phage, and incubated while shaking at 32° C. until bacterial lysis (approx. 90 min). Lysates were centrifuged (6,000 g) and filtered (0.2 μm). […] The phage titre of the eluates was measured by quantitative PCR or by plaque assays. […]
# RPSGKA1 = RPSGKA1 (Homo sapiens, UniProt Q15418); experiment: as above; conditions: read-out: % Inhibition of binding to ATP-binding-site ligand
# From the text: (§4) In this assay, protein kinases are cloned into T7 bacteriophage which express the kinase fusion proteins on the phage capsid. T7 kinase-tagged phage are then screened for binding to ATP-binding-site ligands that have been immobilized on a solid support. Phage are screened for binding to the anchored ligands both in the presence of test compound and in its absence (control). Elution of the bound phage by free ligand (ATP-binding site ligand that is not immobilized on a solid support) followed by determination of the phage titre provides a reliable measure of the ability of test compounds to block binding of target kinases to resin-bound ATP-binding-site ligands.
# (§5) T7 kinase-tagged phage strains were grown in parallel in microtiter plates in a proprietary bacterial host derived from E. Coli strain BL21. E. Coli were grown to a log phase, infected with T7 kinase-tagged phage, and incubated while shaking at 32° C. until bacterial lysis (approx. 90 min). Lysates were centrifuged (6,000 g) and filtered (0.2 μm). Small molecule ATP-binding-site-specific ligands were anchored to solid supports via a two step process beginning with biotin conjugation followed by treatment of the biotin/small molecule conjugate with streptavidin-coated magnetic beads. […] The phage titre of the eluates was measured by quantitative PCR or by plaque assays. […]
# BTK [1] = target: T1, BTK (Homo sapiens, UniProt Q06187); experiment: as above; conditions: read-out: % Inhibition of binding to ATP-binding-site ligand
# From the text: as §4, §5
# BTK [2] = target: T1, BTK; experiment: SignalChem radioisotope protein kinase assay; format: biochemical; set-up: host or cells: T7 phage in an E. coli BL21-derived host; conditions: 5 μl of 100 μM stock solution in 25 μl
# From the text: The various protein kinase targets to be employed in the kinase profiling assay were cloned, expressed and purified in-house at SignalChem (Richmond, BC, Canada) using proprietary methods. Quality control testing is routinely performed on each of the SignalChem targets to ensure compliance to acceptable standards. Protein substrates employed in the target profiling process were synthesized internally. ^33P-ATP was purchased from PerkinElmer. All other materials were of standard grade. Compound 10 (FIG. 4) was supplied to SignalChem in a powder form. It was reconstituted in DMSO to form a stock solution which was then diluted with 10% DMSO to form a working stock solution (100 μM) that was then profiled against the various protein kinase targets. The assay conditions for the various protein kinase targets were optimized to yield acceptable enzymatic activity. In addition, the assays were optimized to give high signal-to-noise ratio. […]
# The assay was initiated by the addition of ^33P-ATP and the reaction mixture incubated at ambient temperature for 20-40 minutes, depending on the protein kinase target. […] The radioactivity on the P81 plate was counted in the presence of scintillation fluid in a Trilux scintillation counter. […] The corrected activity for each protein kinase target was determined by removing the blank control value.
# CLK4 = CLK4 (Homo sapiens, UniProt Q9HAZ1); experiment: Ambit kinase phage display ATP-binding-site ligand binding assay; conditions: read-out: percent inhibition of binding
# From the text: as §4, §5
# TRKA = target: T2, TRKA (Homo sapiens, UniProt P04629); experiment: SignalChem radioisotope protein kinase assay; format: biochemical; conditions: 5 μl of 100 μM stock solution in 25 μl
# T2 construct: purchased SignalChem
# From the text: (§1) The various protein kinase targets to be employed in the kinase profiling assay were cloned, expressed and purified in-house at SignalChem (Richmond, BC, Canada) using proprietary methods. Quality control testing is routinely performed on each of the SignalChem targets to ensure compliance to acceptable standards. Protein substrates employed in the target profiling process were synthesized internally. ^33P-ATP was purchased from PerkinElmer. All other materials were of standard grade. Compound 10 (FIG. 4) was supplied to SignalChem in a powder form. It was reconstituted in DMSO to form a stock solution which was then diluted with 10% DMSO to form a working stock solution (100 μM) that was then profiled against the various protein kinase targets. The assay conditions for the various protein kinase targets were optimized to yield acceptable enzymatic activity. In addition, the assays were optimized to give high signal-to-noise ratio.
# (§2) SignalChem uses a radioisotope assay format for profiling evaluation of protein kinase targets. Protein kinase assays were performed in triplicate at ambient temperature for 20-40 min (depending on the target) in a final volume of 25 μl according to the following assay reaction recipe: • Component 1: 5 μl of diluted active protein kinase target (˜10-40 nM final protein concentration in the assay) • Component 2: 5 μl of stock solution of substrate (1-5 μg of peptide or protein substrate) • Component 3: 5 μl of kinase assay buffer or protein kinase activator in kinase assay buffer • Component 4: 5 μl of Compound 10 (100 μM stock solution) or 10% DMSO • Component 5: 5 μl of 33P-ATP (25 μM stock solution, 0.8 μCi)
# (§3) The assay was initiated by the addition of ^33P-ATP and the reaction mixture incubated at ambient temperature for 20-40 minutes, depending on the protein kinase target. After the incubation period, the assay was terminated by spotting 10 μl of the reaction mixture onto a Millipore Multiscreen plate. The Millipore Multiscreen plate was washed 3 times for approximately 15 minutes each in a 1% phosphoric acid solution. The radioactivity on the P81 plate was counted in the presence of scintillation fluid in a Trilux scintillation counter. Blank control, which included all the assay components except the addition of the appropriate substrate (replaced with equal volume of assay dilution buffer), was set up for each protein kinase target. The corrected activity for each protein kinase target was determined by removing the blank control value.
# PIM2 = PIM2 (Homo sapiens, UniProt Q9P1W9); experiment: SignalChem radioisotope protein kinase assay; format: biochemical; conditions: 5 μl of 100 μM stock solution in 25 μl
# From the text: as §1, §2, §3
# HCK = HCK (Homo sapiens, UniProt P08631); experiment: SignalChem radioisotope protein kinase assay; format: biochemical; conditions: 5 μl of 100 μM stock solution in 25 μl
# From the text: as §1, §2, §3
# RSK2 = target: T3, RSK2 (Homo sapiens, UniProt P51812); experiment: SignalChem radioisotope protein kinase assay; format: biochemical; conditions: 5 μl of 100 μM stock solution in 25 μl
# T3 construct: purchased SignalChem
# From the text: as §1, §2, §3
# FGR = FGR (Homo sapiens, UniProt P09769); experiment: SignalChem radioisotope protein kinase assay; format: biochemical; conditions: 5 μl of 100 μM stock solution in 25 μl
# From the text: as §1, §2, §3
# PIM1 = PIM1 (Homo sapiens, UniProt P11309); experiment: SignalChem radioisotope protein kinase assay; format: biochemical; conditions: 5 μl of 100 μM stock solution in 25 μl
# From the text: as §1, §2, §3
# NEK6 = NEK6 (Homo sapiens, UniProt Q9HC98); experiment: SignalChem radioisotope protein kinase assay; format: biochemical; conditions: 5 μl of 100 μM stock solution in 25 μl
# From the text: as §1, §2, §3
# KDR = KDR (Homo sapiens, UniProt P35968); experiment: SignalChem radioisotope protein kinase assay; format: biochemical; conditions: 5 μl of 100 μM stock solution in 25 μl
# From the text: as §1, §2, §3
# FRK = FRK (Homo sapiens, UniProt P42685); experiment: SignalChem radioisotope protein kinase assay; format: biochemical; conditions: 5 μl of 100 μM stock solution in 25 μl
# From the text: as §1, §2, §3
# c-KIT = c-KIT (Homo sapiens, UniProt P10721); experiment: SignalChem radioisotope protein kinase assay; format: biochemical; conditions: 5 μl of 100 μM stock solution in 25 μl
# From the text: as §1, §2, §3
# RSK3 = target: T4, RSK3 (Homo sapiens, UniProt Q15349); experiment: SignalChem radioisotope protein kinase assay; format: biochemical; conditions: 5 μl of 100 μM stock solution in 25 μl
# T4 construct: purchased SignalChem
# From the text: as §1, §2, §3
# ABL2 = ABL2 (Homo sapiens, UniProt P42684); experiment: SignalChem radioisotope protein kinase assay; format: biochemical; conditions: 5 μl of 100 μM stock solution in 25 μl
# From the text: as §1, §2, §3
# BRAF = BRAF (Homo sapiens, UniProt P15056); experiment: SignalChem radioisotope protein kinase assay; format: biochemical; conditions: 5 μl of 100 μM stock solution in 25 μl
# From the text: as §1, §2, §3
# PAK7 = PAK7 (Homo sapiens, UniProt Q9P286); experiment: SignalChem radioisotope protein kinase assay; format: biochemical; conditions: 5 μl of 100 μM stock solution in 25 μl
# From the text: as §1, §2, §3
# FLT3 = FLT3 (Homo sapiens, UniProt P36888); experiment: SignalChem radioisotope protein kinase assay; format: biochemical; conditions: 5 μl of 100 μM stock solution in 25 μl
# From the text: as §1, §2, §3
# PDGFRβ = PDGFRβ (Homo sapiens, UniProt P09619); experiment: SignalChem radioisotope protein kinase assay; format: biochemical; conditions: 5 μl of 100 μM stock solution in 25 μl
# From the text: as §1, §2, §3
# RAF1(EE) = target: T5, RAF1(EE) (Homo sapiens, UniProt P04049, Y340E/Y341E); experiment: SignalChem radioisotope protein kinase assay; format: biochemical; conditions: 5 μl of 100 μM stock solution in 25 μl
# T5 construct: purchased SignalChem
# From the text: as §1, §2, §3
# P38γ = P38γ (Homo sapiens, UniProt P53778); experiment: SignalChem radioisotope protein kinase assay; format: biochemical; conditions: 5 μl of 100 μM stock solution in 25 μl
# From the text: as §1, §2, §3
# ABL1 = ABL1 (Homo sapiens, UniProt P00519); experiment: SignalChem radioisotope protein kinase assay; format: biochemical; conditions: 5 μl of 100 μM stock solution in 25 μl
# From the text: as §1, §2, §3
# p38β = p38β (Homo sapiens, UniProt Q15759); experiment: SignalChem radioisotope protein kinase assay; format: biochemical; conditions: 5 μl of 100 μM stock solution in 25 μl
# From the text: as §1, §2, §3
# MARK1 = MARK1 (Homo sapiens, UniProt Q9P0L2); experiment: SignalChem radioisotope protein kinase assay; format: biochemical; conditions: 5 μl of 100 μM stock solution in 25 μl
# From the text: as §1, §2, §3
# DAPK1 = DAPK1 (Homo sapiens, UniProt P53355); experiment: Ambit kinase phage display ATP-binding-site ligand binding assay; conditions: read-out: percent inhibition of binding
# From the text: as §4, §5
# T1 sequence (Q06187 whole entry, species assumed): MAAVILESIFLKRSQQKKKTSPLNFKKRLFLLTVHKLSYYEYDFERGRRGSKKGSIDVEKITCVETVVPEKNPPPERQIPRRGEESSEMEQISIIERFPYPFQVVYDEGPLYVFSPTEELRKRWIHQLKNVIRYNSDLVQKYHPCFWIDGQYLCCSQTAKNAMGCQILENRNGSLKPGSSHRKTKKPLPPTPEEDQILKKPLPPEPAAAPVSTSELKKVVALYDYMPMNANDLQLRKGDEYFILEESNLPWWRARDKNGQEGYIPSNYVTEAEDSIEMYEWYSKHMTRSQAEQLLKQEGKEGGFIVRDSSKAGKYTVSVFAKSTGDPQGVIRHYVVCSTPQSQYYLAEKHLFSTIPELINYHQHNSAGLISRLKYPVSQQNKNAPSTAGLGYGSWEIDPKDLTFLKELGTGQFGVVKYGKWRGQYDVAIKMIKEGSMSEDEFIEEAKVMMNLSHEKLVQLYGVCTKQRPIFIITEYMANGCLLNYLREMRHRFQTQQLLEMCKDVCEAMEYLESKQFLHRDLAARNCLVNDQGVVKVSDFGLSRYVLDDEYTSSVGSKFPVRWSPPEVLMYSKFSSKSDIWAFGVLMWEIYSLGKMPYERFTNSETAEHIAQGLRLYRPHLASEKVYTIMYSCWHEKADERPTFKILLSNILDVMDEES
# ABL2, sequence (P42684 whole entry, species assumed): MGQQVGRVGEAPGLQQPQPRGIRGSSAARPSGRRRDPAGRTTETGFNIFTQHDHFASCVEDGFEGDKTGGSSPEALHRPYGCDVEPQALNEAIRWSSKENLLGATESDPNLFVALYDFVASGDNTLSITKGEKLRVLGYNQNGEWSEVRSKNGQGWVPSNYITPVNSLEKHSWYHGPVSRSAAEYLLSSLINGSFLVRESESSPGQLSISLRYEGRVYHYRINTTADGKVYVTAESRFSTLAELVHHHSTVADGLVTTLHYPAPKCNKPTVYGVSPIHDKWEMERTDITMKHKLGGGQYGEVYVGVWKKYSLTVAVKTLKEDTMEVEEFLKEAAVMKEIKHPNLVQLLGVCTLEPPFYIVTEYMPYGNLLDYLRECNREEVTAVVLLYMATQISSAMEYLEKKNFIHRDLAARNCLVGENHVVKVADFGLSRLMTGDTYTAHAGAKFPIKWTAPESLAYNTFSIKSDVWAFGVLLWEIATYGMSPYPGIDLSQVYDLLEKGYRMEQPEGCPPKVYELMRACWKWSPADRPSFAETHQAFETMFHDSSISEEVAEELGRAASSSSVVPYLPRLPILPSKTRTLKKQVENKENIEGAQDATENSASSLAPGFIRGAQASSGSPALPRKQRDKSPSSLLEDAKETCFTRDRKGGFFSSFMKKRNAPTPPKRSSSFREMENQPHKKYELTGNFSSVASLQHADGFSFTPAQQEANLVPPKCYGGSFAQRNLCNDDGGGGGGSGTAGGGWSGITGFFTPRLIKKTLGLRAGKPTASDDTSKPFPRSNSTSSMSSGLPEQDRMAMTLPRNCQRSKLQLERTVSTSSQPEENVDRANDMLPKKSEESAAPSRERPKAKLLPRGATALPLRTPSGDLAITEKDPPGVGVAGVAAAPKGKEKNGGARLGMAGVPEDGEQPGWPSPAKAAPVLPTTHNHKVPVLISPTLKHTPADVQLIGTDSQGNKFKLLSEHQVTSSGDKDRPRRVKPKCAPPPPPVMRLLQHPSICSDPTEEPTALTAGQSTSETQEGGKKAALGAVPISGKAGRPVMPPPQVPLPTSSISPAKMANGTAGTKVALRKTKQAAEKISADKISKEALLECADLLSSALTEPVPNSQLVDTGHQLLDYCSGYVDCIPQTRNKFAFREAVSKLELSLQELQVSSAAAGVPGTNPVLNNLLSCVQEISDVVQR
# T4 sequence (Q15349 whole entry, species assumed): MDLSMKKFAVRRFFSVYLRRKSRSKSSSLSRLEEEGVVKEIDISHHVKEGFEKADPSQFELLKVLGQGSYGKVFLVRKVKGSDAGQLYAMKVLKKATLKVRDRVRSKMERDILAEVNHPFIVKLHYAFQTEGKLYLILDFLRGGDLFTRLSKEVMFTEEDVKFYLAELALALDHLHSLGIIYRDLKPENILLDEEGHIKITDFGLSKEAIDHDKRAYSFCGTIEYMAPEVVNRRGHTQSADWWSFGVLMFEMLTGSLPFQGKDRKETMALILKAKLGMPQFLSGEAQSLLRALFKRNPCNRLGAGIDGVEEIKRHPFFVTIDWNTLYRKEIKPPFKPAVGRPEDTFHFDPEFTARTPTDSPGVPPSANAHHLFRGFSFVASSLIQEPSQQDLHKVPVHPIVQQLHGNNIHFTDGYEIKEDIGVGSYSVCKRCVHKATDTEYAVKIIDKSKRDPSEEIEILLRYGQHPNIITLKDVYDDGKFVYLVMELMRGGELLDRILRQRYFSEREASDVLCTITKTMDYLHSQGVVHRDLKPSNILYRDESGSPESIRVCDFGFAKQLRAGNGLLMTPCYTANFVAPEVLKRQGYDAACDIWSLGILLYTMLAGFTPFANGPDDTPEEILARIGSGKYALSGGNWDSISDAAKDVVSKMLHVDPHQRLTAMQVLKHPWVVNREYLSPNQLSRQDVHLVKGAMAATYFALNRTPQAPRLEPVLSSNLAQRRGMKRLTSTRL
# p38β, sequence (Q15759 whole entry): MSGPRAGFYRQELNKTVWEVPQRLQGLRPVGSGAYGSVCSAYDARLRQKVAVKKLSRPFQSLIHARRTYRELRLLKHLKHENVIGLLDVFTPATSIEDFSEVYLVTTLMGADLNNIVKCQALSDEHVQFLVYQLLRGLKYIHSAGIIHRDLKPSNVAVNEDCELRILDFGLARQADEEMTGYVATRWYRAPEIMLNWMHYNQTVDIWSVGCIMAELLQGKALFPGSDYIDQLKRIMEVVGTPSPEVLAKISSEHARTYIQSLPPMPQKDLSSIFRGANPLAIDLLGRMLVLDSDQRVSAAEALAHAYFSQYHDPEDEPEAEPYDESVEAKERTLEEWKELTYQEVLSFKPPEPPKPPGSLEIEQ
# NEK6, sequence (Q9HC98 whole entry, species assumed): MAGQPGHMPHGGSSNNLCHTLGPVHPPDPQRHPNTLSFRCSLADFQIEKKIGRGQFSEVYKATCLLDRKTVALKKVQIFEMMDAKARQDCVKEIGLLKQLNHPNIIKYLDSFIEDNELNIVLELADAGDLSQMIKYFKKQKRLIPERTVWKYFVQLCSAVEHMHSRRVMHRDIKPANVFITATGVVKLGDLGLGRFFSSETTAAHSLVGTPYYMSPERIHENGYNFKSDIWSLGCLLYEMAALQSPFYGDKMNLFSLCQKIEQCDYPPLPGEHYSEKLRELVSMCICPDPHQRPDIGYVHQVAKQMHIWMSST
# MARK1, sequence (Q9P0L2 whole entry, species assumed): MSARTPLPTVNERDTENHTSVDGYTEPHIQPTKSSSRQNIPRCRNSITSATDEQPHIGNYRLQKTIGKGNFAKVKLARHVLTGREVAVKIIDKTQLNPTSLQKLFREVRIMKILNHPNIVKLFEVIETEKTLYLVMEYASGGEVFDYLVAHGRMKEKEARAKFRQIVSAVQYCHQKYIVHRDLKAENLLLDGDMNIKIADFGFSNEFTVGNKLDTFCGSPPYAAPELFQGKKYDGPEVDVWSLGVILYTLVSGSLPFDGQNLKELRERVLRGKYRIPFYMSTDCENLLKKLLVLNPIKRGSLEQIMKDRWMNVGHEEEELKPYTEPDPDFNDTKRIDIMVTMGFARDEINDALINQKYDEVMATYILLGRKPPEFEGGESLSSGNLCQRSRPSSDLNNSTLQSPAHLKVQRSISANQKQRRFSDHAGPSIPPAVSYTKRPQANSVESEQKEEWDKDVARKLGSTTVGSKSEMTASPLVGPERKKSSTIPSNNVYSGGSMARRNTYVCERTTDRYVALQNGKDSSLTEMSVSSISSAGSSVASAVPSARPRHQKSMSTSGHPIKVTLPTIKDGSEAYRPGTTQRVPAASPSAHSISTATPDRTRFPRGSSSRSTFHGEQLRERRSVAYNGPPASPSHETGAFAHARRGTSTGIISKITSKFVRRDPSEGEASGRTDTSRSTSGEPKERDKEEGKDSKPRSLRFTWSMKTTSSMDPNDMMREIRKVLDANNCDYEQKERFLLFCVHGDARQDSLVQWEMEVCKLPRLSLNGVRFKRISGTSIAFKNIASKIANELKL
# FRK, sequence (P42685 whole entry, species assumed): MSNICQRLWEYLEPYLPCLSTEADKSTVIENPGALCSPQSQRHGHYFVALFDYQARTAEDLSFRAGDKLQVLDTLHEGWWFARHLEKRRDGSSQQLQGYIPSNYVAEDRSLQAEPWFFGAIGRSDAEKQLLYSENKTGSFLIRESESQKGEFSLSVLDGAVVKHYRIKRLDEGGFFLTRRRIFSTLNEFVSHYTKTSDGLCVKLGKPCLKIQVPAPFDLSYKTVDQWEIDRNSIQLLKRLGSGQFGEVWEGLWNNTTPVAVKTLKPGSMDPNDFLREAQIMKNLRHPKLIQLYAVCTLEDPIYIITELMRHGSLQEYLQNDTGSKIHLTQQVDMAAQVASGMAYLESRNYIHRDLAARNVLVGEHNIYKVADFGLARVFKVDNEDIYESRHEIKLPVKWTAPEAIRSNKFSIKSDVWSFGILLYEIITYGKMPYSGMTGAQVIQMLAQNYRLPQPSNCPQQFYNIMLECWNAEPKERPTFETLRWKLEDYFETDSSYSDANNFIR
# PIM2, sequence (Q9P1W9 whole entry, species assumed): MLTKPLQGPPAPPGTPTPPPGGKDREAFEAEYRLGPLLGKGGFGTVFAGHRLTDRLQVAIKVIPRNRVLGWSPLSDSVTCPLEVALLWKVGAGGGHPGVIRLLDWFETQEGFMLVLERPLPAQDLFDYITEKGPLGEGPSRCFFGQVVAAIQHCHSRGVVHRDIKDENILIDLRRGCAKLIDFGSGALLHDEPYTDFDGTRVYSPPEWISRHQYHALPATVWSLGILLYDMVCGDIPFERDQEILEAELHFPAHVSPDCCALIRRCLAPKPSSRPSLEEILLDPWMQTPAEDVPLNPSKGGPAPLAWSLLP
smiles,measurement,setting,value
CCOC(=O)C[C@@H]1C(O[Si](C)(C)C(C)(C)C)[C@H](n2cnc3c(NC(=O)Nc4ccccc4)ncnc32)O[C@@H]1CNC(=O)NC (stereo partly drawn) [Compound 10],inhibition at 10 µM,CDK3,20 to 29%
same,inhibition at 10 µM,RPSGKA1,40%
same,inhibition at 10 µM,BTK [1],35%
same,% Activity Change,BTK [2],10%
same,inhibition at 10 µM,CLK4,20 to 29%
same,% Activity Change,TRKA,−6%
same,% Activity Change,PIM2,18%
same,% Activity Change,HCK,18%
same,% Activity Change,RSK2,−4%
same,% Activity Change,FGR,3%
same,% Activity Change,PIM1,51%
same,% Activity Change,NEK6,28%
same,% Activity Change,KDR,2%
same,% Activity Change,FRK,24%
same,% Activity Change,c-KIT,−6%
same,% Activity Change,RSK3,10%
same,% Activity Change,ABL2,8%
same,% Activity Change,BRAF,1%
same,% Activity Change,PAK7,21%
same,% Activity Change,FLT3,11%
same,% Activity Change,PDGFRβ,−7%
same,% Activity Change,RAF1(EE),0%
same,% Activity Change,P38γ,14%
same,% Activity Change,ABL1,0%
same,% Activity Change,p38β,15%
same,% Activity Change,MARK1,5%
same,inhibition at 10 µM,DAPK1,20 to 29%
